# From US20080038335A1, “METHOD, FORMULATION, AND USE THEREOF FOR IMPROVED ORAL ABSORPTION OF PHARMACEUTICALS OR NUTRIENTS” (SHANGHAI TIANBO BIOTECHNOLOGY CO., LTD., priority 2005, published 2008)
# Assays:
# [1] = oral, Dong et al. 2003; cited from earlier work
# [2] = Solubility in 90% ethanol (Chinese Pharmacopeia method); format: physicochemical; settings: 25° C.±2° C., observed at 30 minutes
# Description: The solution is observed at 30 minutes, and it is defined as complete dissolution when no solute particles or droplets are noticed.
# • 1. Dissolve ginsenoside Rg3 in ethanol. • 100 mg test ginsenoside Rg3 was added to 100 ml of 90% ethanol at 25° C.±2° C., and forcefully shaken for 30 seconds every 5 minutes. […] Preparation of Rg3 solution in ethanol. • The ginsenoside Rg3-ethanol solution is prepared according to Rg3's solubility, and this solution will be used to determine the percentage of polyoxyethylene hydrogenated castor oil in formulation. • 3. Establishment of artificial gastric and intestinal environments. • The artificial gastric and intestinal fluids are prepared in accordance to experimental example 2. • 4. Determination of the proportion of protectant polyoxyethylene hydrogenated castor oil (Cremophor RH40) in ginsenoside Rg3-ethanol solution. • Polyoxyethylene hydrogenated castor oil (Cremophor RH40) at different proportions, from 5%-90%, is added to 100 ml ginsenoside Rg3-ethanol solution, and then the mixture is subjected to artificial gastric or intestinal fluids for stability test. […] The highest proportion as determined, i.e., 50% or 175 mg is adopted for drug preparation. • 5. […]
# • 1. […] The highest proportion as determined, i.e., 40% or 150 mg is adopted for drug preparation. • 5. […]
Compound,absorption rate from the GI tract [1] [%],Amount completely dissolved in 100 ml 90% ethanol [2] [mg]
"CC(C)=CCC[C@](C)(O[C@@H]1O[C@H](CO)[C@@H](O)[C@H](O)[C@H]1O)[C@H]1CC[C@]2(C)[C@@H]1[C@H](O)C[C@@H]1[C@@]3(C)CC[C@H](O)C(C)(C)[C@@H]3[C@@H](O[C@@H]3O[C@H](CO)[C@@H](O)[C@H](O)[C@H]3O)C[C@]12C [Rg1, ginsenoside Rg1]",1.9,
CC(C)=CCC[C@](C)(O[C@@H]1O[C@H](CO[C@@H]2O[C@H](CO)[C@@H](O)[C@H](O)[C@H]2O)[C@@H](O)[C@H](O)[C@H]1O)[C@H]1CC[C@]2(C)[C@@H]1[C@H](O)C[C@@H]1[C@@]3(C)CC[C@H](O[C@@H]4O[C@H](CO)[C@@H](O)[C@H](O)[C@H]4O[C@@H]4O[C@H](CO)[C@@H](O)[C@H](O)[C@H]4O)C(C)(C)[C@@H]3CC[C@]12C [Rb1],1,
"CC(C)=CCC[C@@](C)(O)[C@H]1CC[C@]2(C)[C@@H]1[C@H](O)C[C@@H]1[C@@]3(C)CC[C@H](O)C(C)(C)[C@@H]3CC[C@]12C [aPPD, protopanoxadiol sapogenin aPPD]",,40
"CC(C)=CCC[C@](C)(O)[C@H]1CC[C@]2(C)[C@@H]1[C@H](O)C[C@@H]1[C@@]3(C)CC[C@H](O[C@@H]4O[C@H](CO)[C@@H](O)[C@H](O)[C@H]4O[C@@H]4O[C@H](CO)[C@@H](O)[C@H](O)[C@H]4O)C(C)(C)[C@@H]3CC[C@]12C [Rg3, ginsenoside Rg3]",,100
"CC(C)=CCC[C@](C)(O)[C@H]1CC[C@]2(C)[C@@H]1[C@H](O)C[C@@H]1[C@@]3(C)CC[C@H](O[C@@H]4O[C@H](CO)[C@@H](O)[C@H](O)[C@H]4O)C(C)(C)[C@@H]3CC[C@]12C [Rh2, ginsenoside Rh2]",3.4,
